The text below walks through data of patent publication US4346089A, “1-Aza-4-oxa-bicyclo [4,4,0]decane derivatives” (Beecham Group Limited, priority 1980, dated 1982).

Format in all cases: in vivo
Experiment [1] relates to intragastric pressure. The experiment in a line: Increase in intragastric pressure in the rat (gastric activity). The settings on record: sc, 40 min, conscious starved rats, subcutaneous, 40 minute period after administration, read-out: minimum dose for activity (increase in intragastric pressure), Dose mg/kg Subcutaneously. On the procedure: Increase in intragastric pressure in the rat
Intragastric pressure changes were recorded from previously starved conscious but retrained rats using a saline filled catheter inserted into the lumen of the stomach via a permanent gastric fistula. The catheter was connected to a physiological pressure transducer and pressure changes recorded on a hot wire pen recorder. In each animal pre-dose period of 40 minutes was allowed to obtain a measure of spontaneous activity. An index of activity was obtained by measuring the average height of pressure waves during 10 minute periods. Values for 4 such periods were obtained during assessment of spontaneous activity and for the 40 minute period after the subcutaneous administration of the compounds. Students `t` test was applied to the difference in average values obtained for spontaneous and post-compound activity.

Experiment [2] relates to apomorphine induced climbing. The experiment in a line: Inhibition of apomorphine induced climbing in the mouse. The conditions noted are these: apomorphine 1 mg/kg s.c.; for ED50: Mus musculus, sc, scored at 10, 20 and 30 minutes, read-out: Dose mg/kg ED50 (dose that inhibits the apomorphine response by 50%). Here is the method:
Compounds were also tested for their ability to inhibit apomorphine induced climbing in the mouse. Inactivity in this test may be indicative of a low propensity to produce extra-pyramidal side-effects in man.
The method used for this test is as set out below:
Inhibition of apomorphine induced climbing in the mouse
The test is based on that described by Protais, P., Constantin, J. and Schwartz, J. C. (1976), Psychopharmacology, 50, 1-6.
Apomorphine 1 mg/kg s.c. induces mice to climb the wall of a wire cage (inverted food hopper--11×7.5×18 cm high). Mice acclimatised in their home cages in groups of 5 are placed under the hoppers immediately after the injection of apomorphine 1 mg/kg s.c. At 10, 20 and 30 minutes after injection climbing behaviour is scored. The mice are observed for 30 seconds and scored according to the position in which they spend the majority of time, score 0--four paws on floor of cage; score 1--fore paws only on walls; score 2--all paws on wall of cage.
The scores at all 3 times for each mouse are summed for apomorphine only and for apomorphine plus compound groups of mice.
Total scores are then calculated as the percentage inhibition of climbing as follows: [formula]
From graphical representation of the results ED50 values (the dose that inhibits the apomorphine response by 50%) are then obtained.

In experiment [3] the test system is intragastric pressure. The experiment in a line: Increase in intragastric pressure in the rat (gastric activity). The conditions noted are these: conscious starved rats, oral, read-out: minimum dose for activity (increase in intragastric pressure), Dose mg/kg Orally.

Where two headings read alike, the source gives them in different places.

For the compound `COc1cc(N)c(Cl)cc1C(=O)N[C@H]1CCN2[C@H](COC[C@H]2C)C1` (relative stereo) [Example 6, (±) 4-Amino-5-chloro-2-methoxy-N-(8α-1-aza-2β-methyl-6α-H-4-oxabicyclo[4,4,0]decyl)benzamide], the figures for the minimal effective dose in experiment [1] and in experiment [3] were 0.2 mg/kg and 0.5 mg/kg, respectively. The ED50 in experiment [2] (route of compound not given) came to 40 mg/kg.
`COc1cc(N)c(Cl)cc1C(=O)N[C@H]1CCN2CCOC[C@H]2C1` (relative stereo) [Example 4, (±) 4-Amino-5-chloro-2-methoxy-N-(8β-1-aza-6α-H-4-oxabicyclo [4,4,0]delcyl)benzamide]: the minimal effective dose in experiment [1] was determined as 1 mg/kg. Also, in experiment [2] (route of compound not given), the ED50 stood at 30 mg/kg.
In the case of `COc1cc(N)c(Cl)cc1C(=O)NC1CCN2CC[S+]([O-])CC2C1` (racemic) [Example 16, (±) 4-Amino-5-chloro-2-methoxy-N-(8α,β-1-aza-6α-H-4-oxothiabicyclo[4,4,0]decyl)benzamide], the minimal effective dose in experiment [1] was found to be 5 mg/kg. For the same compound, in experiment [2] (at 10 mg/kg po), the “Dose mg/kg ED50: Ia at stated dose (inhibition of apomorphine induced climbing)” value is “Ia at 10 po”.
In the case of `COc1cc(N)c(Cl)cc1C(=O)N[C@H]1CCN2CC[S+]([O-])C[C@H]2C1` (mixture of isomers) [Example 18, (±) 4-Amino-5-chloro-2-methoxy-N-(8β-1-aza-6α-H-4-oxothiabicyclo[4,4,0]decyl)benzamide], the minimal effective dose in experiment [1] is 1 mg/kg.
As for `COc1cc(N)c(Cl)cc1C(=O)N[C@H]1CCN2CCSC[C@H]2C1` (relative stereo) [Example 10, (±) 4-Amino-5-chloro-2-methoxy-N-(8β-aza-6α-H-4-thiabicyclo [4,4,0]decyl)benzamide], in experiment [1], the minimal effective dose stood at 1 mg/kg.
As to `COc1cc(N)c(Cl)cc1C(=O)N[C@@H]1CCN2[C@H](COC[C@H]2c2ccccc2)C1` (relative stereo) [Example 14, (±) 4-Amino-5-chloro-2-methoxy-N-(8β-1-aza-2β-phenyl-6α-H-4-oxabicyclo[4,4,0]decyl)benzamide monohydrate], the minimal effective dose in experiment [1] was 1 mg/kg. Moreover, the “Dose mg/kg ED50: Ia at stated dose (inhibition of apomorphine induced climbing)” value in experiment [2] (at 10 mg/kg po) is on record as “Ia at 10 po”.
Take `COc1cc(N)c(Cl)cc1C(=O)N[C@H]1CCN2[C@H](COC[C@H]2c2ccccc2)C1` (relative stereo) [Example 12, (±) 4-Amino-5-chloro-2-methoxy-N-(8α-1-aza-2β-phenyl-6α-H-4-oxabicyclo[4,4,0]decyl)benzamide]: in experiment [2] (route of compound not given), the ED50 stood at 30 mg/kg.
Regarding `COc1cc(N)c(Cl)cc1C(=O)N[C@H]1CCN2CCSC[C@@H]2C1` (relative stereo) [Example 8, (±) 4-Amino-5-chloro-2-methoxy-N-(8α-1-aza-6α-H-4-thiabicyclo [4,4 ,0]decyl)benzamide], the minimal effective dose in experiment [1] turned out to be 5 mg/kg. Moreover, the “Dose mg/kg ED50: Ia at stated dose (inhibition of apomorphine induced climbing)” value in experiment [2] (at 25 mg/kg, route of compound not given) is listed as “Ia at 25”.
As to `COc1cc(N)c(Cl)cc1C(=O)N[C@H]1CCN2CCOC[C@@H]2C1` (relative stereo) [Example 2, (±) 4-Amino-5-chloro-2-methoxy-N-(8α-1-aza-6α-H-4-oxabicyclo [4,4,0]decyl)benzamide], the minimal effective dose in experiment [1] and in experiment [3] was 0.5 mg/kg throughout. The ED50 in experiment [2] (route of compound not given) came to 70 mg/kg.
